Source: ChEMBL document CHEMBL4680306, “The 3-D conformational shape of N-naphthyl-cyclopenta[d]pyrimidines affects their potency as microtubule targeting agents and their antitumor activity” (Bioorg Med Chem, 2021)
Active and inactive are the calls of the source. No cut-off for these calls is given here.

Assays:
[1] = tested on: A10; assay: Induction of microtubule depolymerisation in rat A-10 cell line at 40 uM measured after 18 hrs by indirect immunofluorescence method
[2] = tested on: MDA-MB-435; assay: Antiproliferative activity against human MDA-MB-435 cell line assessed as inhibition of cell proliferation at 10 uM measured after 48 hrs by SRB assay; assay type: functional
[3] = tested on: A10; assay: Potency index, ratio of CA-4 IC50 to test compound IC50 for induction of microtubule depolymerisation in rat A-10 cell line measured after 18 hrs by indirect immunofluorescence method
[4] = tested on: M14; assay: Cytotoxicity against human M14 cells assessed as inhibition of cell growth measured after 48 hrs by SRB assay; assay type: functional
[5] = tested on: SK-MEL-28; assay: Cytotoxicity against human SK-MEL-28 cells assessed as inhibition of cell growth measured after 48 hrs by SRB assay; assay type: functional
[6] = tested on: SNB-75; assay: Cytotoxicity against human SNB-75 cells assessed as inhibition of cell growth measured after 48 hrs by SRB assay; assay type: functional
[7] = tested on: HOP-62; assay: Cytotoxicity against human HOP-62 cells assessed as inhibition of cell growth measured after 48 hrs by SRB assay; assay type: functional
[8] = tested on: SF-268; assay: Cytotoxicity against human SF-268 cells assessed as inhibition of cell growth measured after 48 hrs by SRB assay; assay type: functional
[9] = tested on: Malme-3M; assay: Cytotoxicity against human Malme-3M cells assessed as inhibition of cell growth measured after 48 hrs by SRB assay; assay type: functional
[10] = tested on: SF-295; assay: Cytotoxicity against human SF-295 cells assessed as inhibition of cell growth measured after 48 hrs by SRB assay; assay type: functional
[11] = tested on: COLO 205; assay: Cytotoxicity against human COLO 205 cells assessed as inhibition of cell growth measured after 48 hrs by SRB assay; assay type: functional
[12] = tested on: OVCAR-8; assay: Cytotoxicity against human OVCAR-8 cells assessed as inhibition of cell growth measured after 48 hrs by SRB assay; assay type: functional
[13] = tested on: T47D; assay: Cytotoxicity against human T47D cells assessed as inhibition of cell growth measured after 48 hrs by SRB assay; assay type: functional
[14] = tested on: OVCAR-5; assay: Cytotoxicity against human OVCAR-5 cells assessed as inhibition of cell growth measured after 48 hrs by SRB assay; assay type: functional
[15] = tested on: IGROV-1; assay: Cytotoxicity against human IGROV-1 cells assessed as inhibition of cell growth measured after 48 hrs by SRB assay; assay type: functional
[16] = tested on: MCF7; assay: Cytotoxicity against human MCF7 cells assessed as inhibition of cell growth measured after 48 hrs by SRB assay; assay type: functional
[17] = tested on: SW-620; assay: Cytotoxicity against human SW-620 cells assessed as inhibition of cell growth measured after 48 hrs by SRB assay; assay type: functional
[18] = tested on: SK-OV-3; assay: Cytotoxicity against human SK-OV-3 cells assessed as inhibition of cell growth measured after 48 hrs by SRB assay; assay type: functional
[19] = tested on: LOX IMVI; assay: Cytotoxicity against human LOX IMVI cells assessed as inhibition of cell growth measured after 48 hrs by SRB assay; assay type: functional
[20] = tested on: DU-145; assay: Cytotoxicity against human DU-145 cells assessed as inhibition of cell growth measured after 48 hrs by SRB assay; assay type: functional
[21] = tested on: U-251; assay: Cytotoxicity against human U-251 cells assessed as inhibition of cell growth measured after 48 hrs by SRB assay; assay type: functional
[22] = tested on: SR; assay: Cytotoxicity against human SR cells assessed as inhibition of cell growth measured after 48 hrs by SRB assay; assay type: functional
[23] = tested on: MOLT-4; assay: Cytotoxicity against human MOLT-4 cells assessed as inhibition of cell growth measured after 48 hrs by SRB assay; assay type: functional
[24] = tested on: UACC-62; assay: Cytotoxicity against human UACC-62 cells assessed as inhibition of cell growth measured after 48 hrs by SRB assay; assay type: functional
[25] = tested on: MDA-MB-435; assay: Cytotoxicity against human MDA-MB-435 cells assessed as inhibition of cell growth measured after 48 hrs by SRB assay; assay type: functional
[26] = Cytotoxicity against human SK-MEL-5 cells assessed as inhibition of cell growth measured after 48 hrs by SRB assay; assay type: functional
[27] = tested on: HT-29; assay: Cytotoxicity against human HT-29 cells assessed as inhibition of cell growth measured after 48 hrs by SRB assay; assay type: functional
[28] = tested on: BT-549; assay: Cytotoxicity against human BT-549 cells assessed as inhibition of cell growth measured after 48 hrs by SRB assay; assay type: functional
[29] = tested on: SN12C; assay: Cytotoxicity against human SN12C cells assessed as inhibition of cell growth measured after 48 hrs by SRB assay; assay type: functional
[30] = tested on: NCI-H460; assay: Cytotoxicity against human NCI-H460 cells assessed as inhibition of cell growth measured after 48 hrs by SRB assay; assay type: functional
[31] = tested on: CCRF-CEM; assay: Cytotoxicity against human CCRF-CEM cells assessed as inhibition of cell growth measured after 48 hrs by SRB assay; assay type: functional
[32] = tested on: EKVX; assay: Cytotoxicity against human EKVX cells assessed as inhibition of cell growth measured after 48 hrs by SRB assay; assay type: functional
[33] = tested on: HOP-92; assay: Cytotoxicity against human HOP-92 cells assessed as inhibition of cell growth measured after 48 hrs by SRB assay; assay type: functional
[34] = tested on: PC-3; assay: Cytotoxicity against human PC-3 cells assessed as inhibition of cell growth measured after 48 hrs by SRB assay; assay type: functional
[35] = tested on: SK-MEL-2; assay: Cytotoxicity against human SK-MEL-2 cells assessed as inhibition of cell growth measured after 48 hrs by SRB assay; assay type: functional
[36] = tested on: NCI-H23; assay: Cytotoxicity against human NCI-H23 cells assessed as inhibition of cell growth measured after 48 hrs by SRB assay; assay type: functional
[37] = tested on: OVCAR-4; assay: Cytotoxicity against human OVCAR-4 cells assessed as inhibition of cell growth measured after 48 hrs by SRB assay; assay type: functional
[38] = tested on: A549; assay: Cytotoxicity against human A549 cells assessed as inhibition of cell growth measured after 48 hrs by SRB assay; assay type: functional
[39] = tested on: K562; assay: Cytotoxicity against human K562 cells assessed as inhibition of cell growth measured after 48 hrs by SRB assay; assay type: functional
[40] = tested on: NCI/ADR-RES; assay: Cytotoxicity against human NCI/ADR-RES cells assessed as inhibition of cell growth measured after 48 hrs by SRB assay; assay type: functional
[41] = tested on: HCC 2998; assay: Cytotoxicity against human HCC 2998 cells assessed as inhibition of cell growth measured after 48 hrs by SRB assay; assay type: functional
[42] = tested on: 786-0; assay: Cytotoxicity against human 786-0 cells assessed as inhibition of cell growth measured after 48 hrs by SRB assay; assay type: functional
[43] = tested on: KM12; assay: Cytotoxicity against human KM12 cells assessed as inhibition of cell growth measured after 48 hrs by SRB assay; assay type: functional
[44] = tested on: HL-60(TB); assay: Cytotoxicity against human HL-60(TB) cells assessed as inhibition of cell growth measured after 48 hrs by SRB assay; assay type: functional
[45] = tested on: NCI-H226; assay: Cytotoxicity against human NCI-H226 cells assessed as inhibition of cell growth measured after 48 hrs by SRB assay; assay type: functional
[46] = tested on: OVCAR-3; assay: Cytotoxicity against human OVCAR-3 cells assessed as inhibition of cell growth measured after 48 hrs by SRB assay; assay type: functional
[47] = tested on: SF-539; assay: Cytotoxicity against human SF-539 cells assessed as inhibition of cell growth measured after 48 hrs by SRB assay; assay type: functional
[48] = tested on: SNB-19; assay: Cytotoxicity against human SNB-19 cells assessed as inhibition of cell growth measured after 48 hrs by SRB assay; assay type: functional
[49] = tested on: A498; assay: Cytotoxicity against human A498 cells assessed as inhibition of cell growth measured after 48 hrs by SRB assay; assay type: functional
[50] = tested on: HCT-116; assay: Cytotoxicity against human HCT-116 cells assessed as inhibition of cell growth measured after 48 hrs by SRB assay; assay type: functional
[51] = tested on: Hs-578T; assay: Cytotoxicity against human Hs-578T cells assessed as inhibition of cell growth measured after 48 hrs by SRB assay; assay type: functional

Compound: COc1ccc(Nc2nc(C)nc3c2CC(C)C3)cc1 (stereo unspecified)
- Activity [1]: inactive
- inhibition at 10 µM [2]: 7%
- Ratio IC50 [3]: 3

Compound: CC(=O)O[C@H]1C(=O)[C@@]2(C)[C@H]([C@H](OC(=O)c3ccccc3)[C@]3(O)C[C@H](OC(=O)[C@H](O)[C@@H](NC(=O)c4ccccc4)c4ccccc4)C(C)=C1C3(C)C)[C@]1(OC(C)=O)CO[C@@H]1C[C@@H]2O [PACLITAXEL]
- GI50 [4]: 5 nM
- GI50 [5]: 400 nM
- GI50 [6]: 7.9 nM
- GI50 [7]: 19 nM
- GI50 [8]: 5 nM
- GI50 [9]: 50 nM
- GI50 [10]: 25 nM
- GI50 [11]: 7.9 nM
- GI50 [12]: 7.9 nM
- GI50 [13]: 12.5 nM
- GI50 [14]: 7.9 nM
- GI50 [15]: 6.3 nM
- GI50 [16]: 4 nM
- GI50 [17]: 4 nM
- GI50 [18]: 6.3 nM
- GI50 [19]: 5 nM
- GI50 [20]: 6.3 nM
- GI50 [21]: 6.3 nM
- GI50 [22]: 6.3 nM
- GI50 [23]: 5 nM
- GI50 [24]: 5 nM
- GI50 [25]: 4 nM
- GI50 [26]: 5 nM
- GI50 [27]: 5 nM
- GI50 [28]: 4 nM
- GI50 [29]: 6.3 nM
- GI50 [30]: 6.3 nM
- GI50 [31]: 5 nM
- GI50 [32]: 79 nM
- GI50 [33]: 25 nM
- GI50 [34]: 6.3 nM
- GI50 [35]: 400 nM
- GI50 [36]: 6.3 nM
- GI50 [37]: 630 nM
- GI50 [38]: 6.3 nM
- GI50 [39]: 6.3 nM
- GI50 [40]: 630 nM
- GI50 [41]: 1 nM
- GI50 [42]: 39 nM
- GI50 [43]: 5 nM
- GI50 [44]: 4 nM
- GI50 [45]: 3.9 nM
- GI50 [46]: 4 nM
- GI50 [47]: 5 nM
- GI50 [48]: 10 nM
- GI50 [49]: 7.9 nM
- GI50 [50]: 4 nM
- GI50 [51]: 5 nM
